Assay results published in patent publication US4352880A (priority 1979, dated 1982).
Several values for one entry are separate records, joined by “and”; a condition that tells them apart may be missing. Equal values may be shown once. Read-outs that look alike come from different tables or passages of the source.

Key:
physchem [1] = conditions: ta-1538 agar
S. typhimurium TA1535 [2] = test system: S. typhimurium TA1535
physchem [3] = conditions: minimal medium, phosphate buffer, pH 7
physchem [4] = conditions: agar
S. typhimurium TA1535 [5] = test system: S. typhimurium TA1535; remark: listed apart in the source
S. typhimurium TA1535 [6] = experiment: Diffusion bioassay for mutagenicity with microsomal activation (procarcinogens); conditions: for Cmut (minimal mutagenic concentration): brackets: one standard deviation; for Cmut /co /s: from figure; for Cmut threshold value (mean): diffusion method, metabolic activation, brackets: 90% confidence intervals
[7] = as above; conditions: agar plates
S. typhimurium TA1535 [8] = experiment: Homogeneous bioassay with microsomal activation, minimum mutagenic concentration; conditions: metabolic activation, 90% confidence intervals
[9] = half-lifetime .tau.1/2 from diffusion bioassay

CC(=O)Nc1ccc2c(c1)Cc1ccccc1-2 [2-AAF, a-acetyl amino fluorene]
half-life (physchem [1]): 0.446 h

CC(=O)OCN(C)N=O [AcDMN, Acetoxydimethylnitrosoamine]
C mut^hom threshold value (S. typhimurium TA1535 [2]): 1.01 ± 1.48 | half-life (physchem [3]): 30.4 h | half-life (physchem [4]; .tau.1/2 Parametrically): 34.1 h | half-life (physchem [4]; [9]): 19.1 h | Cmut threshold value (mean) (S. typhimurium TA1535 [5]): 1.7(1.07, 3.53) μg/ml | half-lifetime .tau.1/2 from diffusion bioassay (S. typhimurium TA1535 [5]; agar): 34.5 h

CCOS(C)(=O)=O [EMS, ethyl-methane-sulfonate]
C mut^hom threshold value (S. typhimurium TA1535 [2]): 16.85 ± 10.85 | half-life (physchem [3]): 13.8 h | half-life (physchem [4]; .tau.1/2 (Table 16)): 14.5 h | Cmut threshold value (mean) (S. typhimurium TA1535 [5]): 20.3(13.17, 26.97) μg/ml

COc1ccc2nc3cc(Cl)ccc3c(NCCCNCCCl)c2c1 [ICR-191]
half-life (physchem [1]): 2.09 h | rmut (radius of mutagenic zone) (TA-1538; Co 10 mg/ml): 0.73 cm | rmut (radius of mutagenic zone) (TA-1538; Co 100 mg/ml): 1.16 cm | rmut (radius of mutagenic zone) (TA-1538; Co 1000 mg/ml): 1.52 cm

CN(N=O)C(N)=O [MNU, N-Methyl-N-nitrosourea]
C mut^hom threshold value (S. typhimurium TA1535 [2]): 0.116 ± 2.52 | half-life (physchem [3]): 0.599 h | half-life (physchem [4]; [9]): 0.628 h | Cmut threshold value (mean) (S. typhimurium TA1535 [5]): 0.27(0.13, 0.45) μg/ml

O=NN1CCOCC1 [NM, N-nitrosomorpholine]
rmut (radius of mutagenic zone) (S. typhimurium TA1535 [6]; 0.25 μl/disc, R = 4.25, TA 1535): 1.31 ± 0.12 cm and 1.31 ± 0.1 cm | rmut /R (S. typhimurium TA1535 [6]; 0.25 μl, co /s 0.29 mg/ml, R = 4.25 cm): 0.3 ± 0.02 | Cmut (minimal mutagenic concentration) (S. typhimurium TA1535 [6]; 0.25 μl, co /s 0.29 mg/ml): 0.64(0.436, 0.785) μg/ml | Cmut /co /s (S. typhimurium TA1535 [6]; 0.25 μl, co /s 0.29 mg/ml): 2.2 × 10^-3 | rmut (radius of mutagenic zone) (S. typhimurium TA1535 [6]; 2.5 μl/disc, R = 4.25, TA 1535): 2.25 ± 0.12 cm | rmut /R (S. typhimurium TA1535 [6]; 2.5 μl, co /s 0.91 mg/ml, R = 4.25 cm): 0.52 ± 0.02 | Cmut (minimal mutagenic concentration) (S. typhimurium TA1535 [6]; 2.5 μl, co /s 0.91 mg/ml): 0.699(0.465, 0.902) μg/ml | Cmut /co /s (S. typhimurium TA1535 [6]; 2.5 μl, co /s 0.91 mg/ml): 2.4 × 10^-4 | rmut (radius of mutagenic zone) (S. typhimurium TA1535 [6]; 25 μl/disc, R = 4.25, TA 1535): 3.6 ± 0.12 cm and 3.6 ± 0.3 cm | rmut /R (S. typhimurium TA1535 [6]; 25 μl, co /s 29.1 mg/ml, R = 4.25 cm): 0.84 ± 0.07 | Cmut (minimal mutagenic concentration) (S. typhimurium TA1535 [6]; 25 μl, co /s 29.1 mg/ml): 0.276(0.119, 0.505) μg/ml | Cmut /co /s (S. typhimurium TA1535 [6]; 25 μl, co /s 29.1 mg/ml): 9.5 × 10^-6 | Cmut threshold value (mean) (S. typhimurium TA1535 [6]): 0.54(0.23, 0.80) μg/ml | half-life [7]: 6 h | C mut^hom threshold value (S. typhimurium TA1535 [8]): 0.7 ± 3.6

O=NN1CCCC1 [NP, nitrosopyrrolidine]
rmut (radius of mutagenic zone) (S. typhimurium TA1535 [6]; 0.25 μl/disc, R = 4.25 cm, 3 days): 1.6 ± 0.18 cm | Cmut (minimal mutagenic concentration) (S. typhimurium TA1535 [6]; 0.25 μl, co /s 0.27 mg/ml): 0.233(0.143, 0.344) μg/ml | rmut (radius of mutagenic zone) (S. typhimurium TA1535 [6]; 2.5 μl/disc, R = 4.25 cm, 3 days): 2.5 ± 0.28 cm | Cmut (minimal mutagenic concentration) (S. typhimurium TA1535 [6]; 2.5 μl, co /s 2.71 mg/ml): 0.233(0.125, 0.449) μg/ml | rmut (radius of mutagenic zone) (S. typhimurium TA1535 [6]; 10 μl/disc, R = 4.25 cm, 3 days): 3.43 ± 0.32 cm and 3.4 ± 0.32 cm | Cmut (minimal mutagenic concentration) (S. typhimurium TA1535 [6]; 10 μl, co /s 10.85 mg/ml): 0.097(0.048, 0.212) μg/ml | rmut (radius of mutagenic zone) (S. typhimurium TA1535 [6]; 25 μl/disc, R = 4.25 cm, 3 days): 3.7 ± 0.31 cm | Cmut (minimal mutagenic concentration) (S. typhimurium TA1535 [6]; 25 μl, co /s 27.1 mg/ml): 0.108(0.082, 0.25) μg/ml | Cmut threshold value (mean) (S. typhimurium TA1535 [6]): 0.17(0.10, 0.37) μg/ml | half-life [7]: 5.1 h | C mut^hom threshold value (S. typhimurium TA1535 [8]): 0.58 ± 4.8
